ChEMBL document CHEMBL1158240, “Phytogrowth-inhibitory and antifungal constituents of Helianthella quinquenervis” (J Nat Prod, 1996)
≈ marks a conversion by molar mass, not a printed value. Calls of active or inactive are those of the source. No cut-off for these calls is given here.

Assays:
Aspergillus niger = experiment: Antimicrobial activity against Aspergillus niger ATCC 16888 by agar dilution method; type: functional, organism-based
HT-29 = experiment: Cytotoxicity against human HT29 cells after 7 days by MTT assay; type: functional; conditions: HT-29, 168 h, read-out: ED50 (the source's name)
A549 = experiment: Cytotoxicity against human A549 cells after 7 days by MTT assay; type: functional; conditions: A549, 168 h, read-out: ED50 (the source's name)
Echinochloa crus-galli = experiment: Phytogrowth-inhibitory activity against Echinochloa crus-galli assessed as inhibition of seedling germination by petri dish bioassay; type: functional, organism-based
[1] = tested on: Amaranthus hypochondriacus; experiment: Phytogrowth-inhibitory activity against Amaranthus hypochondriacus assessed as inhibition of seedling growth petri dish bioassay; type: functional, organism-based
[2] = Toxicity in brine shrimp; type: organism-based; conditions: artemia, in vivo
Candida albicans = experiment: Antimicrobial activity against Candida albicans ATCC 10231 by agar dilution method; type: functional, organism-based
MCF7 = experiment: Cytotoxicity against human MCF7 cells after 7 days by MTT assay; type: functional; conditions: MCF7, 168 h, read-out: ED50 (the source's name)
[3] = tested on: Trichophyton mentagrophytes; experiment: Antimicrobial activity against Trichophyton mentagrophytes ATCC 9129 by agar dilution method; type: functional

| Compound | Activity (Aspergillus niger) | EC50 (HT-29) | EC50 (A549) | IC50 (Echinochloa crus-galli) | IC50 [1] | LC50 [2] | Activity (Candida albicans) | EC50 (MCF7) | MIC [3] |
| --- | --- | --- | --- | --- | --- | --- | --- | --- | --- |
| COC(C)(C)/C=C/c1cc(C(C)=O)ccc1O[C@@H]1O[C@H](CO)[C@@H](O)[C@H](O)[C@H]1O | inactive | 61 µg/mL (≈ 154 µM) | 6 µg/mL (≈ 15.1 µM) | 231 µg/mL (≈ 583 µM) | 148 µg/mL (≈ 373 µM) | > 1000 µg/mL | inactive | 44 µg/mL (≈ 111 µM) | – |
| C=C(C)[C@H]1Cc2cc(C(C)=O)c(OC)cc2O1 | inactive | 16 µg/mL (≈ 68.9 µM) | 1 µg/mL (≈ 4.31 µM) | 68 µg/mL (≈ 293 µM) | 11 µg/mL (≈ 47.4 µM) | 8 µg/mL (≈ 34.4 µM) | inactive | 33 µg/mL (≈ 142 µM) | – |
| C=C(C)[C@@H]1Oc2cc(O)c(C(C)=O)cc2[C@H]1OC | inactive | 16 µg/mL (≈ 64.4 µM) | 31 µg/mL (≈ 125 µM) | 323 µg/mL (≈ 1300 µM) | 61 µg/mL (≈ 246 µM) | 68 µg/mL (≈ 274 µM) | inactive | 34 µg/mL (≈ 137 µM) | – |
| CC(=O)c1cc2c(cc1O)OC(C)(C)C=C2 [DEMETHYLENCECALIN] | inactive | 2 µg/mL (≈ 9.16 µM) | 10 µg/mL (≈ 45.8 µM) | 79 µg/mL (≈ 362 µM) | 27 µg/mL (≈ 124 µM) | 31 µg/mL (≈ 142 µM) | inactive | 2 µg/mL (≈ 9.16 µM) | 58 µg/mL (≈ 266 µM) |
| COc1cccc2c1C(=O)c1c(O)c3c(c(O)c1C2=O)C[C@@](O)(C(=O)CO)C[C@@H]3O[C@H]1C[C@H](N)[C@H](O)[C@H](C)O1 [DOXORUBICIN] | – | 0.04 µg/mL (≈ 0.0736 µM) | 0.002 µg/mL (≈ 0.00368 µM) | – | – | – | – | 0.02 µg/mL (≈ 0.0368 µM) | – |
| COc1cc2c(cc1C(C)=O)C=CC(C)(C)O2 [ENCECALIN] | inactive | 18 µg/mL (≈ 77.5 µM) | 25 µg/mL (≈ 108 µM) | 6 µg/mL (≈ 25.8 µM) | 7 µg/mL (≈ 30.1 µM) | 31 µg/mL (≈ 133 µM) | inactive | 29 µg/mL (≈ 125 µM) | – |
| C=C(C)c1cc2cc(C(C)=O)c(O)cc2o1 [EUPARIN] | inactive | 6 µg/mL (≈ 27.7 µM) | 22 µg/mL (≈ 102 µM) | 252 µg/mL (≈ 1170 µM) | 111 µg/mL (≈ 513 µM) | 44 µg/mL (≈ 203 µM) | inactive | 6 µg/mL (≈ 27.7 µM) | 29 µg/mL (≈ 134 µM) |
| COC1=CC(=O)C[C@@H](C)[C@]12Oc1c(Cl)c(OC)cc(OC)c1C2=O [GRISEOFULVIN] | – | – | – | – | – | – | – | – | 2.6 µg/mL (≈ 7.37 µM) |
| CCCCC[C@H]1CCCCCCCCCC(=O)O[C@H]2[C@H](O)[C@@H](CO)O[C@@H](O[C@H]3[C@H](O1)O[C@H](C)[C@H](O)[C@@H]3O)[C@@H]2O[C@@H]1O[C@@H](C)[C@H](OC(=O)[C@@H](C)CC)[C@@H](O[C@@H]2O[C@@H](C)[C@H](O)[C@@H](O)[C@H]2O)[C@H]1OC(=O)[C@@H](C)CC [TRICOLORIN A] | – | – | – | 68 µg/mL (≈ 66.5 µM) | 11 µg/mL (≈ 10.8 µM) | – | – | – | – |
